# Source: patent publication US8765730B2 (Hoffmann-La Roche Inc, priority 2010, dated 2014)
# Target: T1, human GPBAR1 receptor (Homo sapiens, UniProt Q8TDU6)
# T1 construct: expressed in transfected cells
# T1 sequence (Q8TDU6 1-330): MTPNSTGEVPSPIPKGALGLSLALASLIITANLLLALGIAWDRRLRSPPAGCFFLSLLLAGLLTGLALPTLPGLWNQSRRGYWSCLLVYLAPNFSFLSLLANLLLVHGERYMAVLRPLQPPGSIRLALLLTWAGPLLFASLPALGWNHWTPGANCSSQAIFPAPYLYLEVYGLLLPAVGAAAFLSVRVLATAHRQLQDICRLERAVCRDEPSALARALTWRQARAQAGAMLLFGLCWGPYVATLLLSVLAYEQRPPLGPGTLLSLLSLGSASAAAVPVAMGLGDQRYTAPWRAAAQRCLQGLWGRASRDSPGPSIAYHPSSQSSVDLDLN
# Experiment: functional cAMP assay in CHO-dhfr(minus) cells expressing human GPBAR1 receptors
# Assay type: cell-based
# Settings: human EC50, functional cAMP assay, 30 min at 30° C.
# Procedure, shortened: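 Agonist cAMP read-out: stable GPBAR1 CHO-dhfr− clone, 30 min compound exposure at 30° C following 30 min IBMX (1 mM) preincubation in Krebs Ringer bicarbonate. Time-resolved energy-transfer detection gives EC50; parental CHO cells serve as counter-screen.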
row,EC50,Compound
1,3590 nM,"Cc1ccccc1C(C/C(=N\O)c1ccc(=O)n(C)c1)c1ccc(Oc2ccc(C(=O)O)c(F)c2)cc1F (stereo not shown) [Example 222, 2-Fluoro-4-{3-fluoro-4-[3-[(E)-hydroxyimino]-3-(1-methyl-6-oxo-1,6-dihydro-pyridin-3-yl)-1-o-tolyl-propyl]-phenoxy}-benzoic acid]"
2,59 nM,"COC(=O)c1ccc(-c2ccc(C(C/C(=N\O)c3ccnc(C)c3)c3ccc(Cl)cc3F)cc2)cc1F (stereo not shown) [Example 446, 4′-[1-(4-Chloro-2-fluoro-phenyl)-3-[(E)-hydroxyimino]-3-(2-methyl-pyridin-4-yl)-propyl]-3-fluoro-biphenyl-4-carboxylic acid methyl ester]"
3,9 nM,"Cc1cc(/C(C[C@@H](c2ccc(-c3ccc(C(=O)O)c(F)c3)cc2)c2ccc(Cl)cc2F)=N/O)ccn1 (single isomer, unassigned) [Example 449, 4′-[(+)-1-(4-Chloro-2-fluoro-phenyl)-3-[(E)-hydroxyimino]-3-(2-methyl-pyridin-4-yl)-propyl]-3-fluoro-biphenyl-4-carboxylic acid]"
4,103 nM,"CC(=O)N1CCN(c2ccc(C(CC(=NO)c3ccnc(C)c3)c3ccc(F)cc3F)cn2)CC1 (stereo not shown) [Example 444, 3-[6-(4-Acetyl-piperazin-1-yl)-pyridin-3-yl]-3-(2,4-difluoro-phenyl)-1-(2-methyl-pyridin-4-yl)-propan-1-one oxime]"
5,12 nM,"Cc1cc(/C(CC(c2ccc(-c3ccc(C(=O)O)c(F)c3)cc2)c2ccc(Cl)cc2F)=N/O)ccn1 (stereo not shown) [Example 447, 4′-[1-(4-Chloro-2-fluoro-phenyl)-3-[(E)-hydroxyimino]-3-(2-methyl-pyridin-4-yl)-propyl]-3-fluoro-biphenyl-4-carboxylic acid]"
6,4 nM,"CCOc1ccc([C@@H](C/C(=N\O)c2ccnc(C)c2)c2ccccc2C)cc1 [Example 364, (R)-3-(4-Ethoxy-phenyl)-1-(2-methyl-pyridin-4-yl)-3-o-tolyl-propan-1-one oxime]"
7,23 nM,"Cc1cc(=O)n(C)cc1/C(CC(c1ccc(Br)cc1)c1ccccc1C)=N/O (stereo not shown) [Example 199, 5-{3-(4-Bromo-phenyl)-1-[(E)-hydroxyimino]-3-o-tolyl-propyl}-1,4-dimethyl-1H-pyridin-2-one]"
8,256 nM,"CCCCC(C/C(=N\O)c1ccc(=O)n(C)c1)c1ccc(Br)cc1 (stereo not shown) [Example 177, 5-{3-(4-Bromo-phenyl)-1-[(E)-hydroxyimino]-heptyl}-1-methyl-1H-pyridin-2-one]"
9,68 nM,"Cc1cc(Cl)ccc1C(C/C(=N\O)c1ccc(=O)n(C)c1)c1ccc(S(C)(=O)=O)cc1 (single isomer, unassigned; (+)) [Example 334, (+)-(E)-5-(3-(4-chloro-2-methylphenyl)-1-(hydroxyimino)-3-(4-(methylsulfonyl)phenyl)-propyl)-1-methylpyridin-2(1H)-one]"
10,347 nM,"Cc1cc(C(=O)O)ccc1-c1ccc(C(C/C(=N\O)c2ccc(=O)n(C)c2)c2ccc(Cl)cc2F)cc1 (single isomer, unassigned) [Example 466, 4′-[(+)-1-(4-Chloro-2-fluoro-phenyl)-3-[(E)-hydroxyimino]-3-(1-methyl-6-oxo-1,6-dihydro-pyridin-3-yl)-propyl]-2-methyl-biphenyl-4-carboxylic acid]"
11,5 nM,"Cc1cc(/C(CC(c2ccc(Br)cc2)c2ncccc2C)=N/O)ccn1 (stereo not shown) [Example 116, (E)-3-(4-Bromo-phenyl)-3-(3-methyl-pyridin-2-yl)-1-(2-methyl-pyridin-4-yl)-propan-1-one oxime]"
12,1 nM,"Cc1cc(/C(C[C@H](c2ccc(N3CCC(C(=O)NCCS(=O)(=O)O)CC3)cc2)c2ccccc2C)=N/O)ccn1 [Example 370, (R,E)-2-(1-(4-(3-(hydroxyimino)-3-(2-methylpyridin-4-yl)-1-o-tolylpropyl)phenyl)-piperidine-4-carboxamido)ethanesulfonic acid]"
13,511 nM,"Cc1ccccc1C(C/C(=N\O)c1ccc(=O)n(C)c1)c1ccc(C(=O)N[C@@H](CO)C(C)C)cc1 (single isomer, unassigned) [Example 306]"
